# Results from ChEMBL document CHEMBL1156243.
# Calls of active or inactive are those of the source.
# Columns and labels:
# [1] = Binding affinity to amyloid beta (1 to 42) oligomers by fluorescence quenching after 30 mins
# [2] = Binding affinity to amyloid beta (1 to 42) fibrils by change in fluorescence at 100 uM after 10 mins
# [3] = Binding affinity to amyloid beta (1 to 42) fibrils by fluorescence quenching after 30 mins
# [4] = Inhibition of amyloid beta (1 to 42) aggregation […] after 48 hrs by fluorescence imaging
# [5] = Binding affinity to amyloid beta (1 to 42) oligomers by change in fluorescence at 100 uM after 10 mins
# [6] = Binding affinity to amyloid beta (1 to 42) oligomers by change in fluorescence at 100 uM after 2 mins
# [7] = Binding affinity to amyloid beta (1 to 42) fibrils by change in fluorescence at 100 uM after 2 mins
Structure (SMILES),Activity [2],Activity [5],other results
c1ccc2[nH]ccc2c1,Active,Active,Activity [1]: Active; Activity [3]: inactive; inhibition [4]: inactive
N[C@@H](Cc1c[nH]c2ccccc12)C(=O)O,Active,Active,inhibition [4]: inactive
CN(C)c1ccc(O)c2c1C[C@H]1C[C@H]3[C@H](N(C)C)C(O)=C(C(N)=O)C(=O)[C@@]3(O)C(O)=C1C2=O,inactive,inactive,
COc1cc(/C=C/C(=O)c2ccccc2)ccc1O,inactive,inactive,
COc1ccc2[nH]cc(CCNC(C)=O)c2c1,Active,Active,inhibition [4]: inactive
COc1cccc(C=O)c1O,inactive,inactive,
O=C(O[C@@H]1Cc2c(O)cc(O)cc2O[C@@H]1c1cc(O)c(O)c(O)c1)c1cc(O)c(O)c(O)c1,inactive,inactive,
O=c1c(O)c(-c2ccc(O)cc2)oc2cc(O)cc(O)c12,inactive,inactive,
O=C(c1ccc(O)cc1)c1ccc(O)cc1,inactive,inactive,
CN(C)c1ccc2nc3ccc(=[N+](C)C)cc-3sc2c1,inactive,inactive,
O=C(O)c1ccccc1O,Active,Active,
Cc1ccc2[nH]c(C(=O)O)cc2c1,Active,Active,inhibition [4]: inactive
O=Cc1c[nH]c2ccccc12,inactive,inactive,
OCCN1CCN(CCCN2c3ccccc3Sc3ccc(Cl)cc32)CC1,inactive,inactive,
CNc1ccc2nc3ccc(N)cc3[s+]c2c1,inactive,inactive,
O=C(/C=C/c1cccc(O)c1)c1ccccc1,inactive,inactive,
O=S(=O)(O)c1cccc2c(-c3ccc(Nc4ccccc4)c4c(S(=O)(=O)O)cccc34)ccc(Nc3ccccc3)c12,,,Activity [6]: Active; Activity [7]: Active
O=C(c1ccccc1)c1ccccc1,inactive,inactive,
CN(C)c1ccc2nc3ccc(N)cc3[s+]c2c1,inactive,inactive,
COc1ccc(C(=O)c2cc(OC)cc(OC)c2)cc1,inactive,inactive,
COc1cc(/C=C/C(=O)c2cccc(N)c2)ccc1O,inactive,inactive,
NCCc1ccc(O)c(O)c1,inactive,inactive,
O=C1c2ccccc2Cc2ccccc21,inactive,inactive,
COc1ccc(/C=C/c2ccc(/C=C/c3ccc(OC)c(OCc4ccccc4)c3)c(Br)c2)cc1OCc1ccccc1,Active,Active,
COc1cc(/C=C/C(=O)NCCCCCCCCNC(=O)/C=C/c2ccc(O)c(OC)c2)ccc1O,inactive,inactive,
